Assay [1] concerns the target T1, human ENPP-1 enzyme (Homo sapiens, UniProt P22413).
T1 construct: purchased R&D Systems
T1 sequence (P22413 1-925): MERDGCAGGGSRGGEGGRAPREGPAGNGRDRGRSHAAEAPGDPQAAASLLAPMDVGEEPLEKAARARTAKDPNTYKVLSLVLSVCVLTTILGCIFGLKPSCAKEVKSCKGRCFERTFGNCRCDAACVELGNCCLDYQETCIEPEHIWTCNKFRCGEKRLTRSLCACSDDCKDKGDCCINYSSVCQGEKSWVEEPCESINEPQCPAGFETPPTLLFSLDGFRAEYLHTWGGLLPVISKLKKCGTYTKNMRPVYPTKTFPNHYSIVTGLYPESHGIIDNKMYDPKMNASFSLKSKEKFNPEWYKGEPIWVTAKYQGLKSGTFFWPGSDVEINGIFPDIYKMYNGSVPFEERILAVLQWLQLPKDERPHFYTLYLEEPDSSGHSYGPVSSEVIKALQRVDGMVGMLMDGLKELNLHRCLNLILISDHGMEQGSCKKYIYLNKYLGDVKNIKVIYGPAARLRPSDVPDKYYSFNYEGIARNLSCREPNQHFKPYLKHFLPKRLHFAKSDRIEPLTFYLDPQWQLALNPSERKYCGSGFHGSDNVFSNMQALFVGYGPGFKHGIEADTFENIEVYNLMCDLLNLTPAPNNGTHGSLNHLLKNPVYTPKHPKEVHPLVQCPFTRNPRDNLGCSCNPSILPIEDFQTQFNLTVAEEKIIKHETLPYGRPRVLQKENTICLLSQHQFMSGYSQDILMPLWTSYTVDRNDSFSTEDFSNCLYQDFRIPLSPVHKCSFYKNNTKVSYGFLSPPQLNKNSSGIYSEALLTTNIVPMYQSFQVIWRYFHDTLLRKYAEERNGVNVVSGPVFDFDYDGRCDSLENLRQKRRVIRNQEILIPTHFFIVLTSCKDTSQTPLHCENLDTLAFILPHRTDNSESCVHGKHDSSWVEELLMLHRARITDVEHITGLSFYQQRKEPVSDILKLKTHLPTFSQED
As to the kind of experiment: ENPP1 Enzyme Assay with cGAMP Substrate (AMP-Glo). The format is biochemical. To be noted: for inhibition at 10 µM: 10 uM compound; for inhibition at 10 µM / inhibition at 1 µM: 20 μM 2′3′-cGAMP substrate; for inhibition at 1 µM: 1 uM compound. From the text:
ENPP1 Enzyme Assay with cGAMP Substrate:
Ectonucleotide pyrophosphatase/phosphodiesterase 1 (ENPP-1) is a transmembrane glycoprotein that hydrolyzes nucleotides and nucleotide derivatives with the formation of nucleoside-5′-monophosphates. ENPP-1 hydrolyzes 2′3′-cGAMP (cGAMP), breaking it down into 5′-AMP and 5′-GMP. The 5′-AMP formed from the reaction is detected using the AMP-Glo® Kit (Promega). The assay kit contains two reagents. The first reagent terminates the enzymatic reaction, removes ATP (using adenylyl cyclase), and converts 5′-AMP produced into ADP (using polyphosphate: AMP phosphotransferase). The second reagent converts ADP to ATP (using adenylate kinase) and generates light from ATP using the luciferin/luciferase reaction. The amount of light measured is proportional to the amount of 5′-AMP produced by ENPP1.
Different concentrations of exemplary ENPP1 inhibitors (synthetic molecules #1-7; see Table 1) were pre-incubated with 5 ng/well of human ENPP-1 enzyme (R&D Systems) for 15 minutes at 37° C. The reaction was initiated by adding 20 μM 2′3′-cGAMP and incubating for 30 minutes at 37° C. The final assay reaction mixture contained a buffer of 50 mM Tris pH 8.0, 250 mM NaCl, 0.5 mM CaCl2, 1 μM ZnCl2 and 1% DMSO. At the end of the incubation, the reaction was stopped by adding 12 μl of AMP-Glo reagent-1 and mixing the reaction uniformly for 5 minutes, followed by incubation at room temperature for one hour. Then 25 μl of AMP Glo reagent-2 was added to the reaction, mixed uniformly with a pipette, and incubated at room temperature for one hour to convert the ADP formed from reagent-1 to ATP and light. The generated light was measured in a Perkin Elmer Victor® instrument. Maximal activity control samples (containing enzyme, substrate, and buffer in the absence of ENPP1 inhibitors: MAX) and background control samples (containing enzyme, substrate, and buffer plus a fully inhibitory concentration (3 μM) of the reference ENPP1 Inhibitor, MV-0000002: MIN) were simultaneously evaluated in order to calculate the percent inhibition at each compound concentration as follows:
(§1) % inhibition=(([MAX−MIN]−[COMPOUND−MIN])/[MAX−MIN])*100
The IC50 values for percent inhibition versus compound concentration were determined by fitting the inhibition curves using a four-parameter variable slope model in GraphPad Prism® software. Ki values are derived from the IC50 values using the Cheng-Prusoff equation: […]

The target of assay [2] is T1, human ENPP-1 enzyme. Nature of the assay: ENPP1 Enzyme Assay with TMP-pNP Substrate (absorbance at 405 nm). Type of assay: biochemical. To be noted: for inhibition at 10 µM: read-out: TMP-pNP: % inhibition at 10 uM, 10 uM compound, 200 μM TMP-pNP substrate. How it is done: ENPP1 Enzyme Assay with TMP-pNP Substrate:
ENPP-1 hydrolyzes thymidine 5′monophosphate p-nitrophenyl ester (TMP-pNP) to nucleotide-5′-monophosphate and p-nitrophenol, which is a chromogenic product. The amount of p-nitrophenol product formed is measured using its absorbance at 405 nm, which is directly proportional to enzyme activity. Different concentrations of inhibitors (synthetic molecules #1-7; see Table 1) were pre-incubated with 15 ng/well of human ENPP-1 enzyme (R&D Systems) for 15 minutes at 37° C. The reaction was initiated by adding 200 μM TMP-pNP and incubating for 10 minutes at 37° C. The final assay reaction mixture contained a buffer of 50 mM Tris pH 8.0, 250 mM NaCl, 0.5 mM CaCl2, 1 μM ZnCl2 and 1% DMSO. The amount of product formed was measured directly in a Tecan® spectrophotometer. Maximal activity control samples (containing enzyme, substrate, and buffer in the absence of ENPP1 inhibitors: MAX) and background control samples (containing enzyme, substrate, and buffer plus a fully inhibitory concentration (3 μM) of the reference ENPP1 Inhibitor, MV-0000002: MIN) are simultaneously evaluated in order to calculate the percent inhibition at each compound concentration as follows:
as §1
The IC50 values for percent inhibition versus compound concentration were determined by fitting the inhibition curves (percent inhibition versus inhibitor concentration) using a four-parameter variable slope model in GraphPad Prism® software. Ki values are derived from the IC50 values using the Cheng-Prusoff equation:
Ki=IC50/(1+[TMP-pNP]/Km),

For the compound `COc1cc2ncnc(N3CCC4(CC3)CN(S(N)(=O)=O)C4)c2cc1OC` [Ex 5, 7-(6,7-dimethoxyquinazolin-4-yl)-2,7-diazaspiro[3.5]nonane-2-sulfonamide], the Ki was at most 100 nM on human ENPP-1 enzyme [1] and 100 to 1000 nM at human ENPP-1 enzyme [2]. Besides, the inhibition at 10 µM against human ENPP-1 enzyme [1] and on human ENPP-1 enzyme [2] was at least 75% throughout.

Consider `COc1cc2ncnc(NCCc3cccc(NS(N)(=O)=O)c3)c2cc1OC` [Ex 7, N-(3-(2-((6,7-dimethoxyquinazolin-4-yl)amino)ethyl)phenyl)sulfonic amide], for which, at human ENPP-1 enzyme [1], the Ki is 100 to 1000 nM and the inhibition at 10 µM is at least 75%. In addition, the inhibition constant (Ki) on human ENPP-1 enzyme [2] is over 1000 nM.

At human ENPP-1 enzyme [1], `COc1cc2ncc(C(N)=O)c(N3CCC(CCNS(N)(=O)=O)CC3)c2cc1OC` [Ex 2, 6,7-dimethoxy-4-(4-(2-(sulfamoylamino)ethyl)piperidin-1-yl)quinoline-3-carboxamide] registered an inhibition at 1 µM of at least 75%. Moreover, on human ENPP-1 enzyme [2], the inhibition at 10 µM is at least 75%.

At human ENPP-1 enzyme [1], `Cn1ncc2c(N3CCC(CCNS(N)(=O)=O)CC3)ncnc21` [Ex 3, N-(2-(1-(1-methyl-1H-pyrazolo[3,4-d]pyrimidin-4-yl)piperidin-4-yl)ethyl)sulfonic amide] came in with a Ki of over 1000 nM and an inhibition at 10 µM of at least 75%. The compound also showed a Ki at human ENPP-1 enzyme [2] of over 1000 nM.

On human ENPP-1 enzyme [1], `COc1cc2ncnc(N3CCc4c(cccc4S(N)(=O)=O)C3)c2cc1OC` [Ex 6, 2-(6,7-dimethoxyquinazolin-4-yl)-1,2,3,4-tetrahydroisoquinoline-5-sulfonamide] showed a Ki of 100 to 1000 nM and an inhibition at 1 µM of at least 75%. The same compound yielded a Ki at human ENPP-1 enzyme [2] of over 1000 nM.

The Ki is a dissociation constant, usually derived from enzyme kinetics or from competition with a known ligand. Higher therefore signals weaker binding. The term inhibition denotes the percentage by which the read-out fell short of the control.

Source of the values: patent US20190282703A1, “ECTONUCLEOTIDE PYROPHOSPHATASE-PHOSPHODIESTERASE (ENPP) CONJUGATES AND USES THEREOF” (Mavupharma, Inc., priority 2018, published 2019).
